In PubChem BioAssay AID2060910 (Molecular Pharmacology Branch, DTP, NCI, 2025):

System: 242566-281-R-J2-PDC complex spheroid viability
Assay: Anticancer human tumor 242566-281-R-J2-PDC patient-derived pancreatic carcinoma cell line growth inhibition [RAS]
Settings: for IC50: curve of first compound; for viability, T/C: stronger effect = lower value; active means viability on the fitted dose curve at most 10% of control; inactive means the rest
Source text: RAS pathway inhibitors in Combinations in Complex Spheroids
A high-throughput screen of multi-cell type tumor spheroids was designed to identify active combinations of RAS pathway inhibitors and targeted small molecules. Complex spheroids include a stromal component modeled by human endothelial cells (HUVEC) and fibroblasts modeled by human mesenchymal stem cells (MSCs). The concentration ranges selected for each drug and investigational agent were based upon clinically achievable concentrations if the clinical Cmax of the agent was known.
Compounds. The drugs and investigational agents: abemaciclib (NSC768073), cobimetinib (NSC768068), divarasib (GDC6063, NSC841802), docetaxel (NSC628503), GDC-1971 (RLY-1971, NSC841576), gemcitabine (NSC613327), inavolisib (NSC800729), ipatasertib (NSC767898), KB-0742 (NSC834161), MRTX-1133 (NSC836407), osimertinib (NSC779217), RMC-4630 (NSC839698), RMC-6236 (NSC851965), RMC-6291 (NSC852671), Ro-3306 (NSC812927), sapanisertib (NSC764658), SN-38 (NSC673596), staurosporine (NSC755774), SY5609 (NSC837396), and tovorafenib (DAY101, NSC766906), were obtained from the National Cancer Institute (NCI) Developmental Therapeutics Program Chemical Repository. The FDA-approved anticancer drug set is available from the NCI Developmental Therapeutics Program. […] The stock solutions were prepared in dimethyl sulfoxide (DMSO, Sigma-Aldrich, St. Louis, MO, cat. D2650) at 800-fold the tested concentration and stored at -70 degrees C prior to their use. All drugs and investigational agents were tested over a range starting from a high concentration at or near the clinical Cmax and decreasing in half-log increments. If the clinical Cmax for an agent had not been determined, the highest concentration tested was 10 microM.
Cell Culture. All cells were maintained in an incubator at 37 degrees C and 5% CO2 with 95% humidity. The PDC lines were cultured according to standard operating procedures established by the NCI PDMR. All PDCs were thawed and cultured in Matrigel-coated flasks prepared with a working solution of 1X Ham's F-12 nutrient mix, without supplementation (Invitrogen, Waltham, MA, cat. 11765054), 100 U/mL penicillin-streptomycin (Invitrogen, cat. 15140122), and 2.5% Matrigel (Corning Inc., Corning, NY, cat. 354248) for the first three passages. The 362531-283-R-J2-PDC and 782815-120-R-J1-PDC lines were cultured in 6C/Colon 1B media, which includes advanced DMEM/F-12 (Thermo Fisher Scientific, cat. 12634028), 10 mM HEPES (Thermo Fisher Scientific, cat. 15630080), 1X GlutaMAX supplement (Thermo Fisher Scientific, cat. 35050061), 0.1 mg/mL primocin (InvivoGen, San Diego, CA, cat. ant-pm-2), 10% defined fetal bovine serum, heat inactivated (HyClone Laboratories Inc., Logan, UT, cat. SH30070.03HI), 50% L-WRN conditioned media (ATCC, cat. CRL-3276), 1.25 mM N-Acetyl-L-cysteine (Sigma-Aldrich, cat. A9165), 10 mM nicotinamide (Sigma-Aldrich, cat. N0636), 1X B-27 supplement (Thermo Fisher Scientific, cat. 17504044), 1X N-2 supplement (Thermo Fisher Scientific, cat. 17502048), 50 ng/mL human EGF (Thermo Fisher Scientific, cat. PHG0311), and 10 microM Y-27632 dihydrochloride (Tocris Bioscience, cat. 1254). The K12877-001-R-J1-PDC line was cultured in 6I media, which includes all 6C/Colon 1B media plus 10 ng/mL human FGF-10 (PeproTech, cat. 100-26), 1 ng/mL human FGF-2 (PeproTech, cat. 100-18B), 1 µM prostaglandin E2 (Tocris Bioscience, cat. 2296), […] hydrocortisone (Sigma-Aldrich, cat. H4001), and […] bovine insulin (Sigma-Aldrich, cat. I6634). The K86415-001-R-J1-PDC line was cultured in 6D media, which includes all 6C/Colon 1B media components minus the L-WRN conditioned media. The 485176-168-R4-J1-PDC was cultured in PANC media, which includes all 6C/Colon 1B media plus 100 ng/mL human FGF-10 (PeproTech, cat. 100-26), 500 nM SB-431542 (Selleckchem, cat. S1067), and 10 nM gastrin (Tocris Bioscience, cat. 3006). […]

[1] = second compound 0.0316 µM, first compound 0.0316 µM
[2] = second compound 0.0316 µM, first compound 0.1 µM
[3] = second compound 0.1 µM, first compound 0.0316 µM
[4] = second compound 0.1 µM, first compound 0.1 µM
[5] = second compound 0.316 µM, first compound 0.0316 µM
[6] = second compound 0.316 µM, first compound 0.1 µM
[7] = second compound 1 µM, first compound 0.0316 µM
[8] = second compound 1 µM, first compound 0.1 µM
[9] = second compound 3.16 µM, first compound 0.0316 µM
[10] = second compound 3.16 µM, first compound 0.1 µM
[11] = second compound 10 µM, first compound 0.0316 µM
[12] = second compound 10 µM, first compound 0.1 µM
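Further: spheroids exposed to compound for 7 days before readout.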
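Wherever viability, T/C is given: 100% = DMSO vehicle control wells.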

CC(C)n1nc(-c2ccc3oc(N)nc3c2)c2c(N)ncnc21 + C#Cc1c(F)ccc2cc(O)cc(-c3ncc4c(N5CC6CCC(C5)N6)nc(OCC56CCCN5CC(F)C6)nc4c3F)c12
9.86 nM: IC50 (second compound 0.1 µM)
0.639 nM: IC50 (second compound 10 µM)
0.918 nM: IC50 (second compound 3.16 µM)
67.5 nM: IC50 (second compound 0.0316 µM)
3.24 nM: IC50 (second compound 1 µM)
inactive: viability, T/C (second compound 0.0316 µM, first compound 0.000316 µM) 91.9% | viability, T/C (second compound 0.0316 µM, first compound 0.001 µM) 95.8% | viability, T/C (second compound 0.0316 µM, first compound 0.00316 µM) 77.1% | viability, T/C (second compound 0.0316 µM, first compound 0.01 µM) 61.3% | viability, T/C [1] 50.5% | viability, T/C [2] 49.3% | viability, T/C (second compound 0.1 µM, first compound 0.000316 µM) 81.4% | viability, T/C (second compound 0.1 µM, first compound 0.001 µM) 80.2% | viability, T/C (second compound 0.1 µM, first compound 0.00316 µM) 70.3% | viability, T/C (second compound 0.1 µM, first compound 0.01 µM) 49.9% | viability, T/C [3] 40.6% | viability, T/C [4] 40% | viability, T/C (second compound 0.316 µM, first compound 0.000316 µM) 78.3% | viability, T/C (second compound 0.316 µM, first compound 0.001 µM) 73.5% | viability, T/C (second compound 0.316 µM, first compound 0.00316 µM) 57.9% | viability, T/C (second compound 0.316 µM, first compound 0.01 µM) 44.5% | viability, T/C [5] 38% | viability, T/C [6] 31.3% | viability, T/C (second compound 1 µM, first compound 0.000316 µM) 57.9% | viability, T/C (second compound 1 µM, first compound 0.001 µM) 64% | viability, T/C (second compound 1 µM, first compound 0.00316 µM) 50.4% | viability, T/C (second compound 1 µM, first compound 0.01 µM) 29.4% | viability, T/C [7] 28.7% | viability, T/C [8] 27.8% | viability, T/C (second compound 3.16 µM, first compound 0.000316 µM) 63.4% | viability, T/C (second compound 3.16 µM, first compound 0.001 µM) 46.9% | viability, T/C (second compound 3.16 µM, first compound 0.00316 µM) 39.2% | viability, T/C (second compound 3.16 µM, first compound 0.01 µM) 30.7% | viability, T/C [9] 24.1% | viability, T/C [10] 19.8% | viability, T/C (second compound 10 µM, first compound 0.000316 µM) 55% | viability, T/C (second compound 10 µM, first compound 0.001 µM) 48% | viability, T/C (second compound 10 µM, first compound 0.00316 µM) 37.9% | viability, T/C (second compound 10 µM, first compound 0.01 µM) 29.1% | viability, T/C [11] 21.7% | viability, T/C [12] 17.8%
6.58 nM: IC50 (second compound 0.316 µM)

C[C@@H](NC(=O)c1ncnc(N)c1Cl)c1ncc(C(=O)Nc2cc(C(F)(F)F)c(Cl)cn2)s1 + C#Cc1c(F)ccc2cc(O)cc(-c3ncc4c(N5CC6CCC(C5)N6)nc(OCC56CCCN5CC(F)C6)nc4c3F)c12
> 10000 nM: IC50 (second compound 0.0316 µM) | IC50 (second compound 0.1 µM) | IC50 (second compound 0.316 µM) | IC50 (second compound 1 µM) | IC50 (second compound 3.16 µM) | IC50 (second compound 10 µM)
inactive: viability, T/C [1] 93.3% | viability, T/C [2] 136% | viability, T/C (second compound 0.0316 µM, first compound 0.316 µM) 93.4% | viability, T/C (second compound 0.0316 µM, first compound 1 µM) 85.8% | viability, T/C (second compound 0.0316 µM, first compound 3.16 µM) 97.9% | viability, T/C (second compound 0.0316 µM, first compound 10 µM) 95.3% | viability, T/C [3] 91.3% | viability, T/C [4] 102% | viability, T/C (second compound 0.1 µM, first compound 0.316 µM) 90.9% | viability, T/C (second compound 0.1 µM, first compound 1 µM) 88.4% | viability, T/C (second compound 0.1 µM, first compound 3.16 µM) 69.9% | viability, T/C (second compound 0.1 µM, first compound 10 µM) 88.8% | viability, T/C [5] 75.9% | viability, T/C [6] 84.1% | viability, T/C (second compound 0.316 µM, first compound 0.316 µM) 60.8% | viability, T/C (second compound 0.316 µM, first compound 1 µM) 75.4% | viability, T/C (second compound 0.316 µM, first compound 3.16 µM) 68.1% | viability, T/C (second compound 0.316 µM, first compound 10 µM) 78.4% | viability, T/C [7] 67.2% | viability, T/C [8] 74.5% | viability, T/C (second compound 1 µM, first compound 0.316 µM) 66.6% | viability, T/C (second compound 1 µM, first compound 1 µM) 62.1% | viability, T/C (second compound 1 µM, first compound 3.16 µM) 64.2% | viability, T/C (second compound 1 µM, first compound 10 µM) 71.4% | viability, T/C [9] 63.4% | viability, T/C [10] 66.7% | viability, T/C (second compound 3.16 µM, first compound 0.316 µM) 63.7% | viability, T/C (second compound 3.16 µM, first compound 1 µM) 53.9% | viability, T/C (second compound 3.16 µM, first compound 3.16 µM) 62.2% | viability, T/C (second compound 3.16 µM, first compound 10 µM) 66.2% | viability, T/C [11] 63.3% | viability, T/C [12] 64% | viability, T/C (second compound 10 µM, first compound 0.316 µM) 46.3% | viability, T/C (second compound 10 µM, first compound 1 µM) 55% | viability, T/C (second compound 10 µM, first compound 3.16 µM) 60.5% | viability, T/C (second compound 10 µM, first compound 10 µM) 63.8%
